The test system of test [1] is dopamine. Nature of the test: Serum dopamine ELISA after 4-week feeding of mice. It counts as in vivo, C57BL/6J mice. To be noted: 4 weeks in drinking water (F4 about 10^7 CFU/ml; ampicillin 1 g/l); control 2.95 ng/ml. The source says:
(§1) Before all animal experiments, animal experimentation was approved and approval number ATG-IACUC-REV-180810 was granted through appropriate procedures by the Institutional Animal Care and Use Committee (IACUC) of AtoGEN, and a guide to ethical animal experiments was followed. 4-week-old C57BL/6J mice were purchased through Central Laboratory Animal (Seoul, Korea), and the experimental groups that were used were a control fed with general feed and drinking water (Ctrl), a gut microbiota dysbiosis experimental group (Amp) fed with general feed and drinking water containing 1 g/l of ampicillin, and an experimental group fed with general feed and drinking water containing about 10^7 CFU/ml of lactic-acid bacteria F4 (F4). Five mice were used for each experimental group. After stabilizing the 4-week-old mice for 1 week, the experiment was conducted for 4 weeks using the experimental groups described above. The entire experiment was independently repeated twice.
(§2) After the 4-week feeding experiment, the mice were anesthetized using ether, and blood was obtained from the heart thereof. […] The serum thus obtained was measured to determine the amounts of dopamine and serotonin in the blood using a dopamine ELISA kit (Abnova, Taiwan) and a serotonin ELISA kit (Abcam, USA).
A general note: ELISA stands for enzyme-linked immunosorbent assay.

Test [2] has as its system serotonin. Kind of test: Serum serotonin ELISA after 4-week feeding of mice. It counts as in vivo, C57BL/6J mice. To be noted: 4 weeks in drinking water (F4 about 10^7 CFU/ml; ampicillin 1 g/l); control 3537.2 ng/ml.
Description: as §1, §2

Test [3] concerns mouse macrophage cell line RAW264.7. Nature of the test: IL-10 ELISA of culture solution of RAW264.7 cells with or without LPS. It counts as cell-based. Particulars: 1 μg/ml LPS alone (positive control), 24 hr. As for the experimental part:
In order to measure the anti-inflammatory effect of F4 lactic-acid bacteria, a cytokine quantification experiment using cells was performed. F4 lactic-acid bacteria as a treatment material were subjected to liquid culture in an MRS broth and were then centrifuged, after which the cells of the strain were recovered and concentrated 10-fold. The concentrated solution thus obtained was treated with lysozyme for 1 hr, lysed through sonication, and then quantified through solid content analysis. […] In order to confirm whether the generation of nitric oxide (NO) as an additional inflammation indicator was inhibited in the LPS-induced group, a predetermined amount of the cell culture supernatant obtained in the cell experiment for measuring cytokines was transferred into 96 wells, and 100 μl of a Griess reagent (modified, SIGMA, USA) was injected thereto, after which reaction was carried out at room temperature for 10 min and absorbance at 540 nm was measured using an ELISA reader. The amount of NO that was produced was calculated by comparing the proportion of NO present in the cell culture solution with the LPS-treated group as a control.

Regarding `CC1(C)S[C@@H]2[C@H](NC(=O)[C@H](N)c3ccccc3)C(=O)N2[C@H]1C(=O)O` [Amp, ampicillin], the dopamine in serum in test [1] was determined as 2.09 ng/mL. The serotonin in serum in test [2] amounted to 2365.0 ng/mL.
As for lipopolysaccharide [LPS], the IL-10 production in test [3] is 166.60 pg/mL.

The record behind these values is US11318178B2, “Lactobacillus reuteri ATG-F4 strain having function of enhancing dopamine secretion and pharmaceutical composition comprising same for prevention or treatment of psychopathy” (ATOGEN CO., LTD, priority 2018, dated 2022).
